The source of these data is patent publication US20240252488A1 (KOREA RESEARCH INSTITUTE OF CHEMICAL TECHNOLOGY, priority 2020, published 2024).

By Kd is commonly meant the concentration at which binding is half-saturated. Read a high Kd as lower affinity.

SMILES strings stand for the structures.

For assay [1], the target named is T1, MLKL (Homo sapiens, UniProt Q8NB16).
T1 sequence (Q8NB16 1-471): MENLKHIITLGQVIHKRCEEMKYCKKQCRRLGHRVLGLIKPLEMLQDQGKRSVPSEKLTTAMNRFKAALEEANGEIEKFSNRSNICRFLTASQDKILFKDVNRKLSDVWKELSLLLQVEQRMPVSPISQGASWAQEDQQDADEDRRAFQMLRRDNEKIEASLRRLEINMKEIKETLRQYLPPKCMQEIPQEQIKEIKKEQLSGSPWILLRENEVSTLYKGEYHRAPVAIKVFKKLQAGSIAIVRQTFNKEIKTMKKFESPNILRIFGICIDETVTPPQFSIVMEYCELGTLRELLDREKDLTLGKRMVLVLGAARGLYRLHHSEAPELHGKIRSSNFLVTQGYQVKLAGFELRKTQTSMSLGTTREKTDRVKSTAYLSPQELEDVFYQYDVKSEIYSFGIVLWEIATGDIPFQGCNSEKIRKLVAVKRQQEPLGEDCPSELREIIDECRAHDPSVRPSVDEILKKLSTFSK
The experiment in a line: MLKL degradation assay in HepG2 cell line (western blot). It is filed as cell-based. Set-up: endogenous in cells; host or cells: HepG2 or HaCaT. To be noted: cell line not given; for Degradation assay (Degradation %) 1 μM: compound 1 μM; for Degradation assay (Degradation %) 10 μM: compound 10 μM. The essentials:
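After treating HepG2 with test compounds (final 1 μM or 10 μM) for 20-24 h, we lysed cells, equalized protein by BCA and probed MLKL by overnight primary antibody at 4 °C followed by chemiluminescent detection.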
(In general: In western blotting, separated proteins are transferred to a membrane and probed.)

For assay [2], the target named is T1, MLKL. The experiment in a line: Measurement of binding affinity with MLKL receptor (competitive binding assay, Kd). Set-up: made in house; host or cells: HEK 293 cell line (T7 phage in E. coli BL21-derived host is also described). The method in brief:
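Kd comes from a bead-based competition format: compound-dependent loss of DNA-tagged, HEK 293-expressed MLKL capture, measured as eluate kinase by qPCR. Final DMSO is 0.9%.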

The test system of a further assay is FADD−/− Jurkat cells. Description: Necroptosis inhibition assay, TNF-α-induced necroptosis (CellTiter-Glo 2.0). Format: cell-based, human. Conditions: TNF-α 15 ng/mL; for Necroptosis inhibition assay (Rescue %) 1 μM: compound 1 μM; for Necroptosis inhibition assay (Rescue %) 10 μM: compound 10 μM. The essentials: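 Necroptosis was triggered by TNF-α at 15 ng/mL final following 30 minutes of compound exposure (0.1, 1 or 10 μM final). Incubation ran 20 to 24 hours at 37° C under 5% CO2; cell ATP was then quantified by luminescence.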
A general note: ATP-based viability assays read luminescence as a measure of living cells.

In the case of `Nc1ncc(-c2cnn(C3CCN(C(=O)COCCOCCNc4ccc5c(c4)C(=O)N(C4CCC(=O)NC4=O)C5=O)CC3)c2)nc1C(=O)O[C@@H](C(=O)Nc1ccc(F)cc1)c1ccccc1` (stereo partly drawn) [TDH-105, (R)-2-((4-fluorophenyl)amino)-2-oxo-1-phenylethyl 3-amino-6-(1-(1-(2-(2-(2-((2-(2,6-dioxopiperidin-3-yl)-1,3-dioxoisoindolin-5-yl)amino)ethoxy)ethoxy)acetyl)piperidin-4-yl)-1H-pyrazol-4-yl)pyrazine-2-carboxylate], on MLKL [1], the “Degradation assay (Degradation %) 1 μM” value is on record as 43.02% and the “Degradation assay (Degradation %) 10 μM” value turned out to be 40.8%. For the same compound, on MLKL [2], the Kd amounted to 6.1 nM. In addition, in the assay with FADD−/− Jurkat cells, the “Necroptosis inhibition assay (Rescue %) 1 μM” value was 27.07% and the “Necroptosis inhibition assay (Rescue %) 10 μM” value is recorded as 15.46%.
Turning to `Nc1ncc(-c2cnn(C3CCN(C4CC5(CCN(CC6CCN(C(=O)c7cccc(C(=O)NC8CCC(=O)NC8=O)c7)CC6)CC5)C4)CC3)c2)nc1C(=O)O[C@@H](C(=O)Nc1ccc(F)cc1)c1ccccc1` (stereo partly drawn) [TDH-544, (R)-2-((4-fluorophenyl)amino)-2-oxo-1-phenylethyl 3-amino-6-(1-(1-(7-((1-(3-((2,6-dioxopiperidin-3-yl)carbamoyl)benzoyl)piperidin-4-yl)methyl)-7-azaspiro[3.5]nonan-2-yl)piperidin-4-yl)-1H-pyrazol-4-yl)pyrazine-2-carboxylate], on MLKL [1], the “Degradation assay (Degradation %) 1 μM” value amounted to 69.45% and the “Degradation assay (Degradation %) 10 μM” value is given as 82.68%. The compound also registered a Kd at MLKL [2] of 0.5 nM. For the same compound, in the assay on FADD−/− Jurkat cells (FADD−/− Jurkat cells), the “Necroptosis inhibition assay (Rescue %) 1 μM” value is reported as 35.33% and the “Necroptosis inhibition assay (Rescue %) 10 μM” value is recorded as 31.42%.
`Nc1ncc(-c2cnn(C3CCN(CCOC4CCN(C(=O)CNc5cccc6c5C(=O)N(C5CCC(=O)NC5=O)C6=O)CC4)CC3)c2)nc1C(=O)OC(C(=O)Nc1ccc(F)cc1)c1ccccc1` (centres unmarked) [TDH-249, 2-((4-fluorophenyl)amino)-2-oxo-1-phenylethyl 3-amino-6-(1-(1-(2-((1-((2-(2,6-dioxopiperidin-3-yl)-1,3-dioxoisoindolin-4-yl)glycyl)piperidin-4-yl)oxy)ethyl)piperidin-4-yl)-1H-pyrazol-4-yl)pyrazine-2-carboxylate]: at MLKL [1], the “Degradation assay (Degradation %) 1 μM” value turned out to be 35.81% and the “Degradation assay (Degradation %) 10 μM” value turned out to be 28.42%. This compound returned a Kd at MLKL [2] of 5.4 nM. For the same compound, in the assay with FADD−/− Jurkat cells, the “Necroptosis inhibition assay (Rescue %) 1 μM” value came to 45.5% and the “Necroptosis inhibition assay (Rescue %) 10 μM” value is recorded as 44.81%.
As for `Nc1ncc(-c2cnn(C3CCN(CCCCCCNC(=O)COc4ccc5c(c4)C(=O)N(C4CCC(=O)NC4=O)C5=O)CC3)c2)nc1C(=O)O[C@@H](C(=O)Nc1ccc(F)cc1)c1ccccc1` (stereo partly drawn) [TDH-165, (R)-2-((4-fluorophenyl)amino)-2-oxo-1-phenylethyl 3-amino-6-(1-(1-(6-(2-((2-(2,6-dioxopiperidin-3-yl)-1,3-dioxoisoindolin-5-yl)oxy)acetamido)hexyl)piperidin-4-yl)-1H-pyrazol-4-yl)pyrazine-2-carboxylate], at MLKL [1], the “Degradation assay (Degradation %) 1 μM” value was determined as 62.49% and the “Degradation assay (Degradation %) 10 μM” value stood at 61.44%. In addition, on MLKL [2], the Kd worked out at 0.9 nM. For the same compound, in the assay with FADD−/− Jurkat cells, the “Necroptosis inhibition assay (Rescue %) 1 μM” value is given as 52.37% and the “Necroptosis inhibition assay (Rescue %) 10 μM” value is on record as 4.66%.
For `Nc1ncc(-c2cnn(C3CCN(C(=O)C4CCN(C(=O)C5CN(c6ccc7nnn(C8CCC(=O)NC8=O)c(=O)c7c6)C5)CC4)CC3)c2)nc1C(=O)O[C@@H](C(=O)Nc1ccc(F)cc1)c1ccccc1` (stereo partly drawn) [TDH-409, (R)-2-((4-fluorophenyl)amino)-2-oxo-1-phenylethyl 3-amino-6-(1-(1-(1-(1-(3-(2,6-dioxopiperidin-3-yl)-4-oxo-3,4-dihydrobenzo[d][1,2,3]triazin-6-yl)azetidine-3-carbonyl)piperidine-4-carbonyl)piperidin-4-yl)-1H-pyrazol-4-yl)pyrazine-2-carboxylate], at MLKL [1], the “Degradation assay (Degradation %) 1 μM” value came out at 81.20% and the “Degradation assay (Degradation %) 10 μM” value is reported as 71.90%. The Kd at MLKL [2] stood at 1.6 nM. In the assay on FADD−/− Jurkat cells (FADD−/− Jurkat cells), the “Necroptosis inhibition assay (Rescue %) 1 μM” value came out at 39.62% and the “Necroptosis inhibition assay (Rescue %) 10 μM” value was determined as 24.45%.
In the case of `Nc1ncc(-c2cnn(C3CCN(CC4CN(C(=O)CNc5cccc6c5C(=O)N(C5CCC(=O)NC5=O)C6=O)CCO4)CC3)c2)nc1C(=O)OC(C(=O)Nc1ccc(F)cc1)c1ccccc1` (centres unmarked) [TDH-306, 2-((4-fluorophenyl)amino)-2-oxo-1-phenylethyl 3-amino-6-(1-(1-((4-((2-(2,6-dioxopiperidin-3-yl)-1,3-dioxoisoindolin-4-yl)glycyl)morpholin-2-yl)methyl)piperidin-4-yl)-1H-pyrazol-4-yl)pyrazine-2-carboxylate], on MLKL [1], the “Degradation assay (Degradation %) 1 μM” value is 62.87% and the “Degradation assay (Degradation %) 10 μM” value is 45.31%. In addition, the affinity on MLKL [2], expressed as Kd, was 5.4 nM. In the assay with FADD−/− Jurkat cells, the “Necroptosis inhibition assay (Rescue %) 1 μM” value was 34.35% and the “Necroptosis inhibition assay (Rescue %) 10 μM” value is recorded as 43.09%.
In the case of `Nc1ncc(-c2cnn(C3CCN(C(=O)COCCOCCNC(=O)COc4cccc5c4C(=O)N(C4CCC(=O)NC4=O)C5=O)CC3)c2)nc1C(=O)O[C@@H](C(=O)Nc1ccc(F)cc1)c1ccccc1` (stereo partly drawn) [TDH-188, (R)-2-((4-fluorophenyl)amino)-2-oxo-1-phenylethyl 3-amino-6-(1-(1-(2-(2-(2-(2-((2-(2,6-dioxopiperidin-3-yl)-1,3-dioxoisoindolin-4-yl)oxy)acetamido)ethoxy)ethoxy)acetyl)piperidin-4-yl)-1H-pyrazol-4-yl)pyrazine-2-carboxylate], at MLKL [1], the “Degradation assay (Degradation %) 1 μM” value was found to be 7.04% and the “Degradation assay (Degradation %) 10 μM” value was 5.3%. At MLKL [2], this compound yielded a Kd of 3.5 nM. In addition, in the assay on FADD−/− Jurkat cells, the “Necroptosis inhibition assay (Rescue %) 1 μM” value was 45.68% and the “Necroptosis inhibition assay (Rescue %) 10 μM” value came to 42.08%.
Taken in the same sequence, the figures for `Nc1ncc(-c2cnn(C3CCN(C(=O)c4cn(C5CCN(C(=O)COc6cccc7c6C(=O)N(C6CCC(=O)NC6=O)C7=O)CC5)cn4)CC3)c2)nc1C(=O)O[C@@H](C(=O)Nc1ccc(F)cc1)c1ccccc1` (stereo partly drawn) [TDH-354, (R)-2-((4-fluorophenyl)amino)-2-oxo-1-phenylethyl 3-amino-6-(1-(1-(1-(1-(2-((2-(2,6-dioxopiperidin-3-yl)-1,3-dioxoisoindolin-4-yl)oxy)acetyl)piperidin-4-yl)-1H-imidazole-4-carbonyl)piperidin-4-yl)-1H-pyrazol-4-yl)pyrazine-2-carboxylate] were 68.16%, 66.72%, 1.4 nM, 31.96% and 35.2%.
As for `Nc1ncc(-c2cnn(C3CCN(CC4CCN(C(=O)CNc5ccc6c(c5)C(=O)N(C5CCC(=O)NC5=O)C6=O)CC4)CC3)c2)nc1C(=O)O[C@@H](C(=O)Nc1ccc(F)cc1)c1ccccc1` (stereo partly drawn) [TDH-137, (R)-2-((4-fluorophenyl)amino)-2-oxo-1-phenylethyl 3-amino-6-(1-(1-((1-((2-(2,6-dioxopiperidin-3-yl)-1,3-dioxoisoindolin-5-yl)glycyl)piperidin-4-yl)methyl)piperidin-4-yl)-1H-pyrazol-4-yl)pyrazine-2-carboxylate], at MLKL [1], the “Degradation assay (Degradation %) 1 μM” value is 54.49% and the “Degradation assay (Degradation %) 10 μM” value was 54.94%. At MLKL [2], this compound came in with a Kd of 2.8 nM. In the assay on FADD−/− Jurkat cells, the “Necroptosis inhibition assay (Rescue %) 1 μM” value amounted to 76.05% and the “Necroptosis inhibition assay (Rescue %) 10 μM” value is given as 63.68%.
Take `Nc1ncc(-c2cnn(C3CCN(CCC4CCN(C(=O)CNc5cccc6c5C(=O)N(C5CCC(=O)NC5=O)C6=O)CC4)CC3)c2)nc1C(=O)O[C@@H](C(=O)Nc1ccc(F)cc1)c1ccccc1` (stereo partly drawn) [TDH-198, (R)-2-((4-fluorophenyl)amino)-2-oxo-1-phenylethyl 3-amino-6-(1-(1-(2-(1-((2-(2,6-dioxopiperidin-3-yl)-1,3-dioxoisoindolin-4-yl)glycyl)piperidin-4-yl)ethyl)piperidin-4-yl)-1H-pyrazol-4-yl)pyrazine-2-carboxylate]: at MLKL [1], the “Degradation assay (Degradation %) 1 μM” value is given as 69.49% and the “Degradation assay (Degradation %) 10 μM” value turned out to be 41.71%. At MLKL [2], this compound yielded a Kd of 1.3 nM. Moreover, in the assay with FADD−/− Jurkat cells, the “Necroptosis inhibition assay (Rescue %) 1 μM” value is 79.13% and the “Necroptosis inhibition assay (Rescue %) 10 μM” value is 31.65%.
